Where “and” joins values, the source holds several entries; their conditions need not be identical. Identical values can stand only once. Calls of active or inactive are those of the source. How the calls were made is not given here.
What follows are compounds tested on in vivo angiogenesis, blood vessel count (assay: reduction of blood vessel formation in vivo – HTS, in vivo study (AID 732;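 further: zebrafish embryos dosed at one day post fertilization; 0% = reference inhibitor and 100% = plate mean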)). Settings: stronger effect = lower value;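 tested at 30 µM in the well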.

| SMILES | vessel count % control |
| --- | --- |
| Cc1nc(-c2ccc(-c3ccc(C(=O)N4CCc5cc6c(cc54)C4(CCN(C)CC4)CO6)cc3)c(C)c2)no1 | 108% (inactive) |
| COc1ccccc1N1CCN(CCCCN2C(=O)c3ccccc3C2=O)CC1 | 117% (inactive) |
| O=[N+]([O-])c1ccc(CSc2ncnc3c2ncn3[C@@H]2O[C@H](CO)[C@H](O)C2O)cc1 (stereo partly drawn) | 80.2% (inactive) |
| CCCN1CCC[C@H](c2cccc(O)c2)C1 | 77.4% (inactive) |
| NC1CCc2cc(O)c(O)cc2C1 (stereo not drawn) | 94.8% (inactive) |
| CO[C@H]1CC=C2CCN3CCC4=C(CC(=O)OC4)[C@]23C1 | 105% (inactive) |
| CC(=O)O[C@H]1C[C@@H]2CC[C@@H]3[C@H](CC[C@@]4(C)[C@H]3C[C@H]([N+]3(C)CCCCC3)[C@@H]4OC(C)=O)[C@@]2(C)C[C@@H]1[N+]1(C)CCCCC1 | 98% (inactive) |
| COc1cc2nc(N3CCN(C(=O)c4ccco4)CC3)nc(N)c2cc1OC | 107% (inactive) |
| C=CCN1CCC2(C)c3cc(O)ccc3CC1C2C (stereo not drawn) | 109% (inactive) |
| COc1cc2ncnc(Nc3cccc(Cl)c3)c2cc1OC | 34.6% |
| CCCN1CCC[C@@H]2Cc3[nH]ncc3C[C@H]21 | 129% (inactive) and 112% (inactive) |
| NC(CCP(=O)(O)O)C(=O)O (stereo not drawn) | 88.9% (inactive) |
| CN(Cc1cnc2nc(N)nc(N)c2n1)c1ccc(C(=O)N[C@@H](CCC(=O)O)C(=O)O)cc1 | 112% (inactive) |
| NCCS | 106% (inactive) |
| O=C(O)CCCCCCCC(=O)O | 95.3% (inactive) |
| CC(N)c1cccc(Cl)c1Cl (stereo not drawn) | 89.7% (inactive) |
| O=C(O)CCC/C=C\C[C@@H]1[C@@H](/C=C/[C@H](O)C2Cc3ccccc3C2)[C@@H](F)C[C@@H]1O | 121% (inactive) |
| CN1CCN(c2nc3cc(C(F)(F)F)ccc3n3cccc23)CC1 | 100% (inactive) |
| COc1ccc(CNC(=O)/C=C/c2ccc3[nH]cc(CCN(C)C)c3c2)cc1 | 75.8% (inactive) |
| CC(=O)SC1CC2=CC(=O)CC[C@]2(C)C2CC[C@@]3(C)C(CC[C@@]34CCC(=O)O4)C12 (stereo partly drawn) | 85.3% (inactive) |
| OCCN(CCO)c1nc(N2CCCCC2)c2nc(N(CCO)CCO)nc(N3CCCCC3)c2n1 | 109% (inactive) |
| CN(C(=O)Cc1ccc(Cl)c(Cl)c1)C(CN1CCCC1)c1cccc(OCC(=O)O)c1 (stereo not drawn) | 124% (inactive) |
| CCCCNc1ccc(C(=O)OCCN(C)C)cc1 | 100% (inactive) |
| COc1cc2nc(N3CCN(C(=O)OCc4ccccc4)C(C(=O)NC(C)(C)C)C3)nc(N)c2cc1OC (stereo not drawn) | 104% (inactive) |
| CCCN1CCC[C@@H](c2cccc(C#N)c2)C1 | 103% (inactive) |

| SMILES | vessel count % control |
| --- | --- |
| C[C@]12C=CC(=O)C=C1CC[C@H]1[C@@H]3C[C@@H](O)[C@](O)(C(=O)CO)[C@@]3(C)C[C@H](O)[C@@]12F | 129% (inactive) |
| C=CCc1ccccc1OCC(O)CNC(C)C (stereo not drawn) | 105% (inactive) |
| NC(=O)c1ccccc1 | 92% (inactive) |
| Nc1ncnc2c1ncn2[C@@H]1O[C@H](CO)[C@H](O)C1O (stereo partly drawn) | 105% (inactive) |
| Cc1cnc(NC(=O)C2=C(O)c3ccccc3S(=O)(=O)N2C)s1 | 136% (inactive) |
| COc1ccc2c(c1)c(CC(=O)O)c(C)n2Cc1ccc(Cl)cc1 | 109% (inactive) |
| c1ccc2nc(C3=NCCN3)ccc2c1 | 97.4% (inactive) |
| Cc1nc2c(OCc3ccccc3)cccn2c1CC#N | 120% (inactive) |
| C=CCn1c(=O)c2c(nc(-c3ccc(S(=O)(=O)O)cc3)n2C)n(C)c1=O | 92% (inactive) |
| Oc1cc2c(cc1O)[C@H]1c3ccccc3CN[C@@H]1CC2 | 83.3% (inactive) |
| O=c1c2ccccc2[se]n1-c1ccccc1 | 94.8% (inactive) |
| OCC1O[C@H](O)C(Cl)C(O)C1O (stereo partly drawn) | 100% (inactive) |
| C#CCOC(=O)C1=CCCN(C)C1 | 106% (inactive) |
| CCCCCN(CCCCC)C(=O)C(CCC(=O)O)NC(=O)c1ccc(Cl)c(Cl)c1 (stereo not drawn) | 81.3% (inactive) |
| C[C@]12CC[C@@H]3c4ccc(O)cc4CC[C@H]3[C@@H]1CC[C@@H]2O | 104% (inactive) |
| CCCC1O[C@@H]2C[C@H]3[C@@H]4CCC5=CC(=O)C=C[C@]5(C)[C@H]4[C@@H](O)C[C@]3(C)[C@]2(C(=O)CO)O1 (stereo partly drawn) | 120% (inactive) |
| CC(C)NCC(O)COc1cccc2ccccc12 (stereo not drawn) | 117% (inactive) |
| N#CC(Cc1ccc(O)c(O)c1)C(=O)N1CCc2ccccc21 (stereo not drawn) | 132% (inactive) |
| C[N+](C)(C)CC#CCN1CCCC1=O | 99.6% (inactive) |
| COc1ccc(CCNC[C@@H](O)c2ccc(O)cc2)cc1OC | 105% (inactive) |
| c1ccc(-c2ccccn2)nc1 | 109% (inactive) |
| NCCc1c[nH]c2ccc(O)cc12 | 84.5% (inactive) |
| C=CCN1CC[C@]23CCCCC2[C@H]1Cc1ccc(O)cc13 (stereo partly drawn) | 141% (inactive) |
| NN=C(N)N | 92.2% (inactive) and 80.5% (inactive) |
| CC(C)(C)NCC(O)c1ccccc1Cl (stereo not drawn) | 130% (inactive) |

| SMILES | vessel count % control |
| --- | --- |
| Oc1cc2c(cc1O)C(c1ccccc1)CNCC2 (stereo not drawn) | 85.1% (inactive) |
| O=c1c(O)c(-c2ccc(O)cc2O)oc2cc(O)cc(O)c12 | 108% (inactive) |
| CN(C(=O)CCCOc1ccc2[nH]c(=O)ccc2c1)C1CCCCC1 | 94.5% (inactive) |
| O=c1n(CCCN2CCN(c3cccc(Cl)c3)CC2)nc2ccccn12 | 88% (inactive) |
| O=C(c1cc(O)c(O)c([N+](=O)[O-])c1)c1ccccc1F | 116% (inactive) |
| Cc1cn([C@H]2C[C@@H](N=[N+]=[N-])[C@@H](CO)O2)c(=O)[nH]c1=O | 91.6% (inactive) |
| CN(C)CC[C@@H](c1ccc(Br)cc1)c1ccccn1 | 102% (inactive) |
| N=C(N)SCCc1cnc[nH]1 | 150% (inactive) |
| COc1cc2c(cc1O)CC[C@@H]1[C@@H]2CC[C@]2(C)[C@@H](O)CC[C@@H]12 | 83.1% (inactive) |
| CCCN(CCC)[C@@H]1CCc2c(F)ccc(O)c2C1 | 78.7% (inactive) |
| COc1cc(=O)n(C)c2c(OCC(O)C(C)(C)O)cccc12 (stereo not drawn) | 75.4% (inactive) |
| Cc1nccc2c1[nH]c1ccccc12 | 86.1% (inactive) |
| C[C@@H]1O[C@H](C[N+](C)(C)C)CS1 | 89.1% (inactive) |
| NCCCCNCCCN | 122% (inactive) |
| Cc1cnc(C(=O)NCCc2ccc(S(=O)(=O)NC(=O)NC3CCCCC3)cc2)cn1 | 106% (inactive) |
| CC1(C)C(=O)N(CCN2CCC(C(=O)c3ccc(F)cc3)CC2)c2ccccc21 | 118% (inactive) |
| CC(N)Cc1c[nH]c2ccc(OCc3cccs3)cc12 (stereo not drawn) | 107% (inactive) |
| CC(C)[N+](C)(CCOC(=O)C1c2ccccc2Oc2ccccc21)C(C)C | 134% (inactive) |
| CN(C)CCOC(C)(c1ccccc1)c1ccccn1 (stereo not drawn) | 95.7% (inactive) |
| O=c1[nH]c2cc(C(F)(F)F)ccc2n1-c1cc(C(F)(F)F)ccc1O | 91.2% (inactive) |
| N#CC(=C(\N)Sc1ccccc1N)/C(C#N)=C(/N)Sc1ccccc1N | 94.5% (inactive) |
| CC(C)C[C@H](NC(=O)[C@H](O)[C@H](N)Cc1ccccc1)C(=O)O | 104% (inactive) |
| CCCCCCCCCCCCCC(=O)O[C@@H]1[C@@H](C)[C@@]2(O)[C@@H](C=C(CO)C[C@@]3(O)C(=O)C(C)=C[C@@H]23)C2C(C)(C)[C@@]21OC(C)=O (stereo partly drawn) | 0% (inactive) |
| OC(CCN1CCCCC1)(c1ccccc1)C1CCCCC1 (stereo not drawn) | 98.5% (inactive) |
| CN1C[C@H](CNC(=O)OCc2ccccc2)C[C@@H]2c3cccc4c3c(cn4C)C[C@H]21 | 111% (inactive) |

| SMILES | vessel count % control |
| --- | --- |
| O=C(O)[C@@H]1C[C@H](C(=O)O)N1 | 59.7% (inactive) |
| COc1ccc2c(c1OC)C(=O)O[C@@H]2[C@H]1c2c(cc3c(c2OC)OCO3)CCN1C | 127% (inactive) |
| CCCNC(=O)NS(=O)(=O)c1ccc(Cl)cc1 | 124% (inactive) |
| NNC(=O)c1ccc(O)cc1 | 97.5% (inactive) |
| CN(C)CCCN1c2ccccc2CCc2ccccc21 | 104% (inactive) |
| CN(C)CCC=C1c2ccccc2C=Cc2ccccc21 | 82.4% (inactive) |
| O=S(=O)(O)C1CCNCC1 | 89.3% (inactive) |
| COc1cc(C(O)C(=O)O)ccc1O (stereo not drawn) | 92.5% (inactive) |
| CCCn1c(=O)c2[nH]c(C3CCCC3)nc2n(CCC)c1=O | 78.9% (inactive) |
| CC[N+](CC)(CC)CC | 112% (inactive) |
| Fc1ccc([C@@H]2CCNC[C@H]2COc2ccc3c(c2)OCO3)cc1 | 138% (inactive) |
| COc1ccc(/C=C/C(=O)Nc2ccccc2C(=O)O)cc1OC | 100% (inactive) |
| O=c1ccn([C@@H]2O[C@H](COP(=O)(O)OP(=O)(O)O)[C@@H](O)[C@H]2O)c(=O)[nH]1 | 140% (inactive) |
| c1cc(CN2CCCCC2)cc(OCCCNc2nc3ccccc3s2)c1 | 112% (inactive) |
| COc1ccccc1N1CCN(CC(O)COc2cccc3ccccc23)CC1 (stereo not drawn) | 91.2% (inactive) |
| CN1C2CCC1CC(NC(=O)c1nn(C)c3ccccc13)C2 (stereo not drawn) | 104% (inactive) |
| CNC(=O)[C@H]1O[C@@H](n2cnc3c(NCc4cccc(I)c4)ncnc32)C(O)[C@H]1O (stereo partly drawn) | 83.3% (inactive) |
| FC(F)(F)c1ccccc1-n1ccnc1 | 93.4% (inactive) |
| CC(=O)[C@H]1CCC2C3CC[C@H]4C[C@H](O)CC[C@]4(C)C3CC[C@@]21C (stereo partly drawn) | 68.7% (inactive) |
| COc1cc2c(c(OC)c1OC)-c1ccc(OC)c(=O)cc1[C@@H](NC(C)=O)CC2 | 116% (inactive) |
| N[C@@H](Cn1ccc(=O)[nH]c1=O)C(=O)O | 102% (inactive) |
| CCN1/C(=C/C(C)=O)Sc2ccc(OC)cc21 | 98% (inactive) |
| NC/C=C\C(=O)O | 111% (inactive) |

From PubChem BioAssay AID732 (Emory University Molecular Libraries Screening Center, 2007)
